Article PMC6753678, “Fueling Open Innovation for Malaria Transmission-Blocking Drugs: Hundreds of Molecules Targeting Early Parasite Mosquito Stages” (Frontiers in Microbiology, 2019)
Several values for one entry are separate records, joined by “and”; a condition that tells them apart may be missing. Equal values may be shown once. Read-outs that look alike come from different tables or passages of the source.

What was measured:
[1] = tested on: P. falciparum male gametocytes; assay: P. falciparum Dual Gamete Formation Assay (Pf DGFA), male readout; details: for Pf DGFA Male, Expt 1 / Pf DGFA Male, Expt 2 / Pf DGFA Male, Expt 3 / Pf DGFA Male, Expt 4: 1µM; for inhibition at 1 µM: Plasmodium falciparum, read-out: % inhibition Pf DGFA (male) 1 μM (±SEM), 1 μM, mean of four experiments; for % inhibition Pf DGFA (male) 1 μM (±SEM): mean of four experiments
[2] = tested on: P. falciparum female gametocytes; assay: P. falciparum Dual Gamete Formation Assay (Pf DGFA), female readout; details: for Pf DGFA Female, Expt 1 / Pf DGFA Female, Expt 2 / Pf DGFA Female, Expt 3 / Pf DGFA Female, Expt 4: 1µM; for inhibition at 1 µM: Plasmodium falciparum, read-out: % inhibition Pf DGFA (female) 1 μM (±SEM), 1 μM, mean of four experiments
[3] = tested on: P. berghei ookinete development; details: for IC50: read-out: IC50 Pb ODA, dose response, at least triplicate
HepG2 cells [4] = assay: HepG2 cytotoxicity assay; details: for IC50: Homo sapiens, HepG2, 48 h, read-out: IC50 HepG2
Outline: (§1)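 Here viability after a 48 h compound incubation (37°C, humidified 5% CO2) is measured by fluorescence and expressed as percent inhibition, with doxorubicin at 50 μM and DMSO as the bounding controls.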

HepG2 cytotoxicity assay = details: human, HepG2 cells
Outline: as §1

[5] = tested on: P. berghei ookinete development; assay: microbe, parasite or virus in culture; details: Plasmodium berghei
[6] = tested on: 3D7-strain P. falciparum asexual parasites; assay: P. falciparum asexual growth inhibition assay (Pf GIA); format: cell-based, Plasmodium falciparum; details: Plasmodium falciparum
Outline: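 Read-out was lactate dehydrogenase activity measured by absorbance at 650 nm after freezing and thawing, against 50 μM chloroquine and DMSO controls. Before that, asexual 3D7 cultures (0.25% parasitemia, 2% hematocrit) had 72 h dose-response compound exposure at 37°C in 5% CO2/5% O2/90% N2; three independent replicates averaged.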

[7] = tested on: P. berghei oocyst intensity in Anopheles stephensi mosquitoes; assay: P. berghei standard membrane feeding assay (Pb SMFA); details: for inhibition at 1 µM: read-out: % inhibition Pb SMFA 1 μM (±SEM), inhibition of oocyst intensity at 1 μM
[8] = tested on: P. falciparum male gametogenesis; design: method as in Colmenarejo et al., 2018; details: 2 μM; ref Colmenarejo et al., 2018; cited from earlier work
[9] = tested on: P. falciparum late stage (stages IV-V) gametocytes; design: method as in Almela et al 2016; details: TCAMS screen comparison; ref Almela et al 2016; read-out: Pf GCT ATP IC50; cited from earlier work
HepG2 cells [10] = details: cited from earlier work
[11] = tested on: P. falciparum oocyst intensity; design: method as in Colmenarejo et al., 2018; details: 2 μM; ref Colmenarejo et al., 2018; cited from earlier work
[12] = tested on: P. falciparum female gametocytes; design: method as in Miguel-Blanco et al 2017; details: TCAMS screen comparison; ref Miguel-Blanco et al 2017; read-out: Pf FGAA IC50; cited from earlier work
[13] = read-out: % inhibition, Replicate A
[14] = read-out: % inhibition, Replicate B
[15] = read-out: IC50 Pb ODA, dose response, at least triplicate
[16] = 3D7, dose response confirmation, read-out: Pf asexual growth inhibition assays IC50
[17] = 3D7, 72 h, LDH readout, read-out: IC50 Pf Asexual

Compound	Pf DGFA Male, Expt 1 [1]	Pf DGFA Male, Expt 2 [1]	Pf DGFA Male, Expt 3 [1]	Pf DGFA Male, Expt 4 [1]	inhibition at 1 µM [1] [%]	Pf DGFA Female, Expt 1 [2]	Pf DGFA Female, Expt 2 [2]	Pf DGFA Female, Expt 3 [2]	Pf DGFA Female, Expt 4 [2]	IC50 [3]	IC50 (HepG2 cells [4]) [µM]	IC50 at 48 h (HepG2 cytotoxicity assay) [µM]	inhibition at 1 µM [5, 13] [%]	inhibition at 1 µM [5, 14] [%]	IC50 [5, 15] [µM]	IC50 [6, 16] [nM]	IC50 [6, 17] [nM]	inhibition at 1 µM [7] [%]	% inhibition Pf DGFA (male) 1 μM (±SEM) [1] [%]	inhibition at 1 µM [2] [%]	further results
COc1ccc2ncc(F)c(CCN3CCC(NC(=O)c4ccc5c(n4)NC(=O)CS5)C(O)C3)c2n1 (stereo not shown) [TCMDC-135907]	27.09	-8.08	-8.79	59.50	17.4	25.41	-9.01	-10.92	-26.87	381 nM	42.2	42.2	99.8	69.5	> 0.25	2020	2020	56.2	–	–	Is compound selective in assay? Pb ODA active? ([3]; 1: YES, 0: NO): 1 (1: YES); HepG2 cytoxicity (Pb ODA, this manuscript) (HepG2 cells [4]; HepG2, this manuscript): 42.17 µM; Unified cytotox (HepG2 cells [4]; HepG2 values of the three screens unified): 42.17 µM; IC50 ([5]; read-out: Pb ODA IC50, this manuscript): 0.38 µM
NC(=O)c1ccccc1Nc1nc(Nc2cccc(N3CCN(CCO)CC3)c2)ncc1Cl [TCMDC-134114]	100.00	99.14	99.70	100.00	–	18.27	-46.13	-5.85	-25.02	–	41.7	41.7	106	96.7	< 0.06	22	21.5	97	99.71	-14.7	Assay tox ratio Pb ODA (red: <10-fold selectivity; green: >10-fold) [3]: 747.08; Is compound selective in assay? Pb ODA active? [3]: 1 (key: 1: YES; 0: NO); Pb ODA (this manuscript) HepG2 cytoxicity (HepG2 cells [4]; HepG2 cytotoxicity listed with the Pb ODA data set (this manuscript)): 41.69 µM; IC50 ([5]; read-out: Pb ODA (this manuscript) IC50 (µM), P. berghei ookinete development assay, this manuscript): 0.0558 µM; IC50 ([5]; read-out: Pb Ookinete development assay IC50 (µM), dose response confirmation): 0.056 µM
CCC1CN2CCc3cc(OC)c(OC)cc3C2CC1CC1NCCc2cc(OC)c(OC)cc21 (stereo not shown) [TCMDC-125849]	77.97	55.40	60.36	68.13	65.5	99.68	99.20	99.79	98.70	> 250 nM and 268 nM	24	24	118	98.5	0.268	42	41.9	71.4	65.46	99.3	inhibition of male gametogenesis in P. falciparum [8]: total inhibition; IC50 [9]: 120 nM; % inhibition Pf DGFA (female) 1 μM (±SEM) ([2]; 1 μM, mean of four experiments): 99.34%; Unified cytotox (HepG2 cells [4]; human): 14.64 µM; HepG2 cytoxicity (HepG2 cells [4]; value reported with the Pb ODA screen, this manuscript): 23.99 µM; HepG2 cytoxicity (HepG2 cells [10]; value reported with the Pf FGAA screen, ref Miguel-Blanco et al 2017): 2.24 µM; HepG2 cytoxicity (HepG2 cells [10]; value reported with the Pf GCT ATP screen, ref Almela et al 2016): 17.68 µM; inhibition of oocyst intensity in P. falciparum [11]: 100%; IC50 ([5]; read-out: Pb ODA IC50 (µM), this manuscript): 0.27 µM; % inhibition Pb SMFA 1 μM (±SEM) ([7]; inhibition of oocyst intensity at 1 μM): 71.4%; IC50 [12]: 1820 nM
